Test results reported in article PMC10905675, “INX-315, a Selective CDK2 Inhibitor, Induces Cell Cycle Arrest and Senescence in Solid Tumors” (Cancer Discovery, 2023).

Legend:
Experiment in all cases: SelectScreen Adapta
Type in all cases: biochemical
Settings in all cases: INX-0315 at 100nM
CAMK1 (CaMK1) = target: T1, CAMK1 (CaMK1) (Homo sapiens, UniProt Q14012)
T1 construct: purchased Thermo Fisher Scientific SelectScreen (plus Nanosyn / Reaction Biology for CDK/cyclin lines)
Text: (§1) INX-315 was first evaluated in the SelectScreen Biochemical Kinase Profiling at Thermo Fisher Scientific (Madison, WI). The primary screen consisted of INX-315 dosed at a single concentration of 100 nmol/L in 1% DMSO across each platform within the SelectScreen array of assays, LanthaScreen Eu Kinase Binding Assay; AdaptaScreen; and Z'LyteScreen using preestablished conditions at Thermo Fisher Scientific as shown in Supplementary Table S2. […] The follow-up screen consisted of 10-point dose–response curves for INX-315 from 1 µmol/L to 0.0495 nmol/L.

CDK4/cyclin D3 = target: T2, CDK4/cyclin D3 (Homo sapiens, UniProt P11802)
T2 construct: purchased Thermo Fisher Scientific SelectScreen (plus Nanosyn / Reaction Biology for CDK/cyclin lines)
Text: as §1

CDK6/cyclin D1 = target: T3, CDK6/cyclin D1 (Homo sapiens, UniProt Q00534)
T3 construct: purchased Thermo Fisher Scientific SelectScreen (plus Nanosyn / Reaction Biology for CDK/cyclin lines)
Text: as §1

CDK7/cyclin H/MNAT1 = target: T4, CDK7/cyclin H/MNAT1 (Homo sapiens, UniProt P50613)
T4 construct: purchased Thermo Fisher Scientific SelectScreen (plus Nanosyn / Reaction Biology for CDK/cyclin lines)
Text: as §1

CDK9/cyclin T1 = target: T5, CDK9/cyclin T1 (Homo sapiens, UniProt P50750)
T5 construct: purchased Carna 04-110
T5 sequence (P50750 whole entry): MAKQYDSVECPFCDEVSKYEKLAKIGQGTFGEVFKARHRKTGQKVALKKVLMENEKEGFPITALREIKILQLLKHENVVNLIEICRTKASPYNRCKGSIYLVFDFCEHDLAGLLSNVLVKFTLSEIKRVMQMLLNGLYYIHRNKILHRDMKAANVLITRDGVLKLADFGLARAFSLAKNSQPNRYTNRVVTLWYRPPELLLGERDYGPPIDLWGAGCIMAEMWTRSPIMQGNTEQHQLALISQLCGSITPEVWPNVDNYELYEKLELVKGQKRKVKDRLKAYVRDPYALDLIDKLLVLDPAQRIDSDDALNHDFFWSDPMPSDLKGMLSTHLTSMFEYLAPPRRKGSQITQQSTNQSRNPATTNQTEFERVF
T5 sequence (O60563 whole entry partner): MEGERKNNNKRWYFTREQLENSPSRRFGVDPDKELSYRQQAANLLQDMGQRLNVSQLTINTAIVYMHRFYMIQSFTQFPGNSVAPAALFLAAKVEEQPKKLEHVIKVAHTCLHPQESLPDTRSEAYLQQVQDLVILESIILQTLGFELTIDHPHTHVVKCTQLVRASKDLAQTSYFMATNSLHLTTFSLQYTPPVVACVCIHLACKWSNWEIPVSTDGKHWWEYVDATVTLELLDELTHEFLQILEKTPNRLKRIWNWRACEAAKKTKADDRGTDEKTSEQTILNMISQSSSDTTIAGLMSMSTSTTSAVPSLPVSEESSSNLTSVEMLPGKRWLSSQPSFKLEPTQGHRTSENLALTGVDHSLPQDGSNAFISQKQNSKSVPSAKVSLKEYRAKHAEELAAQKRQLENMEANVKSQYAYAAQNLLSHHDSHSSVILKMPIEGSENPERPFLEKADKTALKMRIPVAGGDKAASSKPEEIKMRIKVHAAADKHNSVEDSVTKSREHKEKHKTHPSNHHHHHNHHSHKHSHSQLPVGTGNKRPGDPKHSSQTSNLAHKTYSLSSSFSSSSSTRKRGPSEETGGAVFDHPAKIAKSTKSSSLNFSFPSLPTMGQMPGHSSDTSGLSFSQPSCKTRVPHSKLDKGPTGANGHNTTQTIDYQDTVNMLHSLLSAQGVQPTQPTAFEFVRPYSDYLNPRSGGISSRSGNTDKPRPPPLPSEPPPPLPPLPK
Text: as §1

DAPK1 = target: T6, DAPK1 (Homo sapiens, UniProt P53355)
T6 construct: purchased Thermo Fisher Scientific SelectScreen (plus Nanosyn / Reaction Biology for CDK/cyclin lines)
Text: as §1

GSG2 (Haspin) = target: T7, GSG2 (Haspin) (Homo sapiens, UniProt Q8TF76)
T7 construct: purchased Thermo Fisher Scientific SelectScreen (plus Nanosyn / Reaction Biology for CDK/cyclin lines)
Text: as §1

IRAK1 = target: T8, IRAK1 (Homo sapiens, UniProt P51617)
T8 construct: purchased Thermo Fisher Scientific SelectScreen (plus Nanosyn / Reaction Biology for CDK/cyclin lines)
Text: as §1

LRRK2 = target: T9, LRRK2 (Homo sapiens, UniProt Q5S007)
T9 construct: purchased Thermo Fisher Scientific SelectScreen (plus Nanosyn / Reaction Biology for CDK/cyclin lines)
Text: as §1

LRRK2 FL = target: T10, LRRK2 FL (Homo sapiens, UniProt Q5S007)
T10 construct: purchased Thermo Fisher Scientific SelectScreen (plus Nanosyn / Reaction Biology for CDK/cyclin lines)
Text: as §1

LRRK2 G2019S = target: T11, LRRK2 G2019S (Homo sapiens, UniProt Q5S007, G2019S)
T11 construct: purchased Thermo Fisher Scientific SelectScreen (plus Nanosyn / Reaction Biology for CDK/cyclin lines)
Text: as §1

LRRK2 G2019S FL = target: T12, LRRK2 G2019S FL (Homo sapiens, UniProt Q5S007, G2019S)
T12 construct: purchased Thermo Fisher Scientific SelectScreen (plus Nanosyn / Reaction Biology for CDK/cyclin lines)
Text: as §1

LRRK2 I2020T = target: T13, LRRK2 I2020T (Homo sapiens, UniProt Q5S007, I2020T)
T13 construct: purchased Thermo Fisher Scientific SelectScreen (plus Nanosyn / Reaction Biology for CDK/cyclin lines)
Text: as §1

LRRK2 R1441C = target: T14, LRRK2 R1441C (Homo sapiens, UniProt Q5S007, R1441C)
T14 construct: purchased Thermo Fisher Scientific SelectScreen (plus Nanosyn / Reaction Biology for CDK/cyclin lines)
Text: as §1

NUAK1 (ARK5) = target: T15, NUAK1 (ARK5) (Homo sapiens, UniProt O60285)
T15 construct: purchased Thermo Fisher Scientific SelectScreen (plus Nanosyn / Reaction Biology for CDK/cyclin lines)
Text: as §1

PI4K2A (PI4K2 alpha) = target: T16, PI4K2A (PI4K2 alpha) (Homo sapiens, UniProt Q9BTU6)
T16 construct: purchased Thermo Fisher Scientific SelectScreen (plus Nanosyn / Reaction Biology for CDK/cyclin lines)
Text: as §1

PI4K2B (PI4K2 beta) = target: T17, PI4K2B (PI4K2 beta) (Homo sapiens, UniProt Q8TCG2)
T17 construct: purchased Thermo Fisher Scientific SelectScreen (plus Nanosyn / Reaction Biology for CDK/cyclin lines)
Text: as §1

PI4KB (PI4K beta) = target: T18, PI4KB (PI4K beta) (Homo sapiens, UniProt Q9UBF8)
T18 construct: purchased Thermo Fisher Scientific SelectScreen (plus Nanosyn / Reaction Biology for CDK/cyclin lines)
Text: as §1

PIK3C2A (PI3K-C2 alpha) = target: T19, PIK3C2A (PI3K-C2 alpha) (Homo sapiens, UniProt O00443)
T19 construct: purchased Thermo Fisher Scientific SelectScreen (plus Nanosyn / Reaction Biology for CDK/cyclin lines)
Text: as §1

PIK3C2B (PI3K-C2 beta) = target: T20, PIK3C2B (PI3K-C2 beta) (Homo sapiens, UniProt O00750)
T20 construct: purchased Thermo Fisher Scientific SelectScreen (plus Nanosyn / Reaction Biology for CDK/cyclin lines)
Text: as §1

PIK3C3 (hVPS34) = target: T21, PIK3C3 (hVPS34) (Homo sapiens, UniProt Q8NEB9)
T21 construct: purchased Thermo Fisher Scientific SelectScreen (plus Nanosyn / Reaction Biology for CDK/cyclin lines)
Text: as §1

[1] = target: T22, PIK3CA E542K/PIK3R1 (p110 alpha E542K/p85 alpha) (Homo sapiens, UniProt P42336, E542K)
T22 construct: purchased Thermo Fisher Scientific SelectScreen (plus Nanosyn / Reaction Biology for CDK/cyclin lines)
T22 sequence (P42336 whole entry E542K): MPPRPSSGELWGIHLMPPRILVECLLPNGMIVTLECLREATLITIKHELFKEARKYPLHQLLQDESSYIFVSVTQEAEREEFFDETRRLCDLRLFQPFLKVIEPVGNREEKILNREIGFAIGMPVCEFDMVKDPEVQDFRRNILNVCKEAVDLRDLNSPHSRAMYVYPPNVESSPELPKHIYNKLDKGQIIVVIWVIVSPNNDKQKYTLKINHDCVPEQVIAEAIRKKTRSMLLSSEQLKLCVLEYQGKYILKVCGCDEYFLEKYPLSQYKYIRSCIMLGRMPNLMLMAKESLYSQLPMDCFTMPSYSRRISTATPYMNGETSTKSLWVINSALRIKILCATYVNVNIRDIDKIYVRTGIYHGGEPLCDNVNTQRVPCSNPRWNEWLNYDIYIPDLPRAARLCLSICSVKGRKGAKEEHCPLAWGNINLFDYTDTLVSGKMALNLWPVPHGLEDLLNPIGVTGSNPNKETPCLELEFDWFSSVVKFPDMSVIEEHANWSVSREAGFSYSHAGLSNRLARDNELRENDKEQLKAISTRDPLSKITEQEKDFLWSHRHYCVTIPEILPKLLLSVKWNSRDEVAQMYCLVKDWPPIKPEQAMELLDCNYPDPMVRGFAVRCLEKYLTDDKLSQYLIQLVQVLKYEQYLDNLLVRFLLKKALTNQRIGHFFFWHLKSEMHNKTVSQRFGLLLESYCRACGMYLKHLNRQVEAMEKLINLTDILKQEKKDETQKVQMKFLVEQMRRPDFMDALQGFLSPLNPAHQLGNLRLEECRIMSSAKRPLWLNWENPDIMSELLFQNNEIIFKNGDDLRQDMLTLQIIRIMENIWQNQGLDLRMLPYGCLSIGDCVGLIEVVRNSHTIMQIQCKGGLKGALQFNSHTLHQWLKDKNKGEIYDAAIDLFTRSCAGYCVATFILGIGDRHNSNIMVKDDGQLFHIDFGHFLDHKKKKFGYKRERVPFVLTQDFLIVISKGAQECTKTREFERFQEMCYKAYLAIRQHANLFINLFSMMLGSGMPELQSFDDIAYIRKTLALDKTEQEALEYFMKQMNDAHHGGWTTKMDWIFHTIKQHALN
T22 sequence (P27986 whole entry partner): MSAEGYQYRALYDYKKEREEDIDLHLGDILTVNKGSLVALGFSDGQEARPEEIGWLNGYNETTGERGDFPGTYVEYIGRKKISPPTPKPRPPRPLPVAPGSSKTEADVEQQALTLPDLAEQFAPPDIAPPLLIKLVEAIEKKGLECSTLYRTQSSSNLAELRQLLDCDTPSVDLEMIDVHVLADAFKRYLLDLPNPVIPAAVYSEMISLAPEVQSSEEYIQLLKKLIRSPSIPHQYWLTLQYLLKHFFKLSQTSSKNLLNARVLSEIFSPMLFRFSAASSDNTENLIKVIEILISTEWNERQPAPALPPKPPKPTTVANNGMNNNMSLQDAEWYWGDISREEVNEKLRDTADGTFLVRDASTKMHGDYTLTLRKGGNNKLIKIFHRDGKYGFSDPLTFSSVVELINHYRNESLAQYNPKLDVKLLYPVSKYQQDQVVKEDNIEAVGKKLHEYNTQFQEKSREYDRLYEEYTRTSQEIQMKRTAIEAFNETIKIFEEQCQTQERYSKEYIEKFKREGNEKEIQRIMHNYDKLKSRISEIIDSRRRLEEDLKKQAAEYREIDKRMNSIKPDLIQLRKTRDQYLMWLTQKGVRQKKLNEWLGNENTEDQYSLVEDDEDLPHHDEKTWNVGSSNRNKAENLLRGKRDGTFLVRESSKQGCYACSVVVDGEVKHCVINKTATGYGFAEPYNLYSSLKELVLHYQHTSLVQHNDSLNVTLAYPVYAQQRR
Text: as §1

[2] = target: T23, PIK3CA E545K/PIK3R1 (p110 alpha E545K/p85 alpha) (Homo sapiens, UniProt P42336, E545K)
T23 construct: purchased Thermo Fisher Scientific SelectScreen (plus Nanosyn / Reaction Biology for CDK/cyclin lines)
T23 sequence (P42336 whole entry E545K): as the sequence (P42336 whole entry E542K) above, with K542E, E545K counted along it
T23 sequence (P27986 whole entry partner): as the sequence (P27986 whole entry partner) above
Text: as §1

[3] = target: T24, PIK3CA/PIK3R1 (p110 alpha/p85 alpha) (Homo sapiens, UniProt P42336)
T24 construct: purchased Thermo Fisher Scientific SelectScreen (plus Nanosyn / Reaction Biology for CDK/cyclin lines)
T24 sequence (P42336 whole entry): as the sequence (P42336 whole entry E542K) above, with K542E counted along it
T24 sequence (P27986 whole entry partner): as the sequence (P27986 whole entry partner) above
Text: as §1

[4] = target: T25, PIK3CA/PIK3R3 (p110 alpha/p55 gamma) (Homo sapiens, UniProt P42336)
T25 construct: purchased Thermo Fisher Scientific SelectScreen (plus Nanosyn / Reaction Biology for CDK/cyclin lines)
Text: as §1

[5] = target: T26, PIK3CB/PIK3R1 (p110 beta/p85 alpha) (Homo sapiens, UniProt P42338)
T26 construct: purchased Thermo Fisher Scientific SelectScreen (plus Nanosyn / Reaction Biology for CDK/cyclin lines)
T26 sequence (P42338 whole entry): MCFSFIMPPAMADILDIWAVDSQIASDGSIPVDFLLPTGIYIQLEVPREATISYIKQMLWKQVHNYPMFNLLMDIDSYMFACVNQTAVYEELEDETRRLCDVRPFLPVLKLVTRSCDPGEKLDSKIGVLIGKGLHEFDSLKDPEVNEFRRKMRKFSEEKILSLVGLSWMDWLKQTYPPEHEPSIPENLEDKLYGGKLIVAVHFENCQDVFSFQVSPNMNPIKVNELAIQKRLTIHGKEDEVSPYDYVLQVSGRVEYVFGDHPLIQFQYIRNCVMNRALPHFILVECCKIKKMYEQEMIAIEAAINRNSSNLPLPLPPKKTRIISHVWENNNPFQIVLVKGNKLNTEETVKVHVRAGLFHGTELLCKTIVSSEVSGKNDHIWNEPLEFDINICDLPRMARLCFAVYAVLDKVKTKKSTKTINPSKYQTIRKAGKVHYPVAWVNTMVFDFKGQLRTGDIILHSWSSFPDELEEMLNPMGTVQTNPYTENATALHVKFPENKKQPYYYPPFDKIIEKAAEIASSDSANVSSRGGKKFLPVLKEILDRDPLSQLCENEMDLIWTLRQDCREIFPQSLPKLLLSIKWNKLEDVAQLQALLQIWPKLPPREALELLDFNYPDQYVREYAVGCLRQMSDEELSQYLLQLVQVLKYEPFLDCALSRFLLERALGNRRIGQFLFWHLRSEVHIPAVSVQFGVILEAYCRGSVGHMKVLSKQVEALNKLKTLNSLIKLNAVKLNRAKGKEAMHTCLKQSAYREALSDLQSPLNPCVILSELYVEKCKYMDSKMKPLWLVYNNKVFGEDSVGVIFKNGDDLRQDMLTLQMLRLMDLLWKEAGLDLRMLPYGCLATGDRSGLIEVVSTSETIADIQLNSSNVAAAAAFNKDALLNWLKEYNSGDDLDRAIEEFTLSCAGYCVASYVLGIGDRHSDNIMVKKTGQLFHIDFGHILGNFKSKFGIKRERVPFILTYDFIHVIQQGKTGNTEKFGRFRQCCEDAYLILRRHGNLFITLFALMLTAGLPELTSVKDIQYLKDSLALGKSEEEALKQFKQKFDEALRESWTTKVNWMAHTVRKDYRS
T26 sequence (P27986 whole entry partner): as the sequence (P27986 whole entry partner) above
Text: as §1

[6] = target: T27, PIK3CB/PIK3R2 (p110 beta/p85 beta) (Homo sapiens, UniProt P42338)
T27 construct: purchased Thermo Fisher Scientific SelectScreen (plus Nanosyn / Reaction Biology for CDK/cyclin lines)
T27 sequence (P42338 whole entry): as the sequence (P42338 whole entry) above
T27 sequence (O00459 whole entry partner): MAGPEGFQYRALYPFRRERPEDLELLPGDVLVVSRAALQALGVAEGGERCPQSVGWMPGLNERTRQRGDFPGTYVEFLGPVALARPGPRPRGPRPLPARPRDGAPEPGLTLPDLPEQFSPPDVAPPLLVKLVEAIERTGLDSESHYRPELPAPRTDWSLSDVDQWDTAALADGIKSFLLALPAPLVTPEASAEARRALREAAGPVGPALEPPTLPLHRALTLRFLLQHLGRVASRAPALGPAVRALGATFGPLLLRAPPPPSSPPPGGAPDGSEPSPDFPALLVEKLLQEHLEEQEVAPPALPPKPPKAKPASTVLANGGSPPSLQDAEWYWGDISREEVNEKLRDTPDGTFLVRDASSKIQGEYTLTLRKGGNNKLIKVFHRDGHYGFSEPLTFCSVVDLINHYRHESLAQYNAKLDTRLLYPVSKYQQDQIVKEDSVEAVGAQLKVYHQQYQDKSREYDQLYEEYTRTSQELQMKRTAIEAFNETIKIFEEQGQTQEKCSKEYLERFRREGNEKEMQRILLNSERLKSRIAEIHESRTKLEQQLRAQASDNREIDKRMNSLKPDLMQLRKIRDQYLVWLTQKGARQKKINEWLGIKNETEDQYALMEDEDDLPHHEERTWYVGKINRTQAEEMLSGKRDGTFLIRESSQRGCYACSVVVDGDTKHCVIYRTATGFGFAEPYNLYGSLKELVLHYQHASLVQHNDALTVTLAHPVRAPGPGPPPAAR
Text: as §1

[7] = target: T28, PIK3CD/PIK3R1 (p110 delta/p85 alpha) (Homo sapiens, UniProt O00329)
T28 construct: purchased Thermo Fisher Scientific SelectScreen (plus Nanosyn / Reaction Biology for CDK/cyclin lines)
Text: as §1

PIK3CG (p110 gamma) = target: T29, PIK3CG (p110 gamma) (Homo sapiens, UniProt P48736)
T29 construct: purchased Thermo Fisher Scientific SelectScreen (plus Nanosyn / Reaction Biology for CDK/cyclin lines)
Text: as §1

PIP4K2A = target: T30, PIP4K2A (Homo sapiens, UniProt P48426)
T30 construct: purchased Thermo Fisher Scientific SelectScreen (plus Nanosyn / Reaction Biology for CDK/cyclin lines)
Text: as §1

PIP5K1A = target: T31, PIP5K1A (Homo sapiens, UniProt Q99755)
T31 construct: purchased Thermo Fisher Scientific SelectScreen (plus Nanosyn / Reaction Biology for CDK/cyclin lines)
Text: as §1

PIP5K1B = target: T32, PIP5K1B (Homo sapiens, UniProt O14986)
T32 construct: purchased Thermo Fisher Scientific SelectScreen (plus Nanosyn / Reaction Biology for CDK/cyclin lines)
Text: as §1

PIP5K1C = target: T33, PIP5K1C (Homo sapiens, UniProt O60331)
T33 construct: purchased Thermo Fisher Scientific SelectScreen (plus Nanosyn / Reaction Biology for CDK/cyclin lines)
Text: as §1

SPHK1 = target: T34, SPHK1 (Homo sapiens, UniProt Q9NYA1)
T34 construct: purchased Thermo Fisher Scientific SelectScreen (plus Nanosyn / Reaction Biology for CDK/cyclin lines)
Text: as §1

SPHK2 = target: T35, SPHK2 (Homo sapiens, UniProt Q9NRA0)
T35 construct: purchased Thermo Fisher Scientific SelectScreen (plus Nanosyn / Reaction Biology for CDK/cyclin lines)
Text: as §1

NS(=O)(=O)c1ccc(Nc2ncc3cc4n(c3n2)C2(CCCCC2)C(=O)NN4)cc1 [INX-315]
inhibition at 0.1 µM (CAMK1 (CaMK1)): -17% | inhibition at 0.1 µM (CDK4/cyclin D3): 22% | inhibition at 0.1 µM (CDK6/cyclin D1): 15% | inhibition at 0.1 µM (CDK7/cyclin H/MNAT1): -3% | inhibition at 0.1 µM (CDK9/cyclin T1): 52% | inhibition at 0.1 µM (DAPK1): -8% | inhibition at 0.1 µM (GSG2 (Haspin)): 4% | inhibition at 0.1 µM (IRAK1): 6% | inhibition at 0.1 µM (LRRK2): 29% | inhibition at 0.1 µM (LRRK2 FL): 37% | inhibition at 0.1 µM (LRRK2 G2019S): 34% | inhibition at 0.1 µM (LRRK2 G2019S FL): 40% | inhibition at 0.1 µM (LRRK2 I2020T): 28% | inhibition at 0.1 µM (LRRK2 R1441C): 22% | inhibition at 0.1 µM (NUAK1 (ARK5)): 68% | inhibition at 0.1 µM (PI4K2A (PI4K2 alpha)): 0% | inhibition at 0.1 µM (PI4K2B (PI4K2 beta)): -2% | inhibition at 0.1 µM (PI4KB (PI4K beta)): 2% | inhibition at 0.1 µM (PIK3C2A (PI3K-C2 alpha)): -1% | inhibition at 0.1 µM (PIK3C2B (PI3K-C2 beta)): -14% | inhibition at 0.1 µM (PIK3C3 (hVPS34)): 7% | inhibition at 0.1 µM [1]: -1% | inhibition at 0.1 µM [2]: 0% | inhibition at 0.1 µM [3]: 11% | inhibition at 0.1 µM [4]: -2% | inhibition at 0.1 µM [5]: -17% | inhibition at 0.1 µM [6]: -14% | inhibition at 0.1 µM [7]: -10% | inhibition at 0.1 µM (PIK3CG (p110 gamma)): -8% | inhibition at 0.1 µM (PIP4K2A): 7% | inhibition at 0.1 µM (PIP5K1A): 6% | inhibition at 0.1 µM (PIP5K1B): 38% | inhibition at 0.1 µM (PIP5K1C): 4% | inhibition at 0.1 µM (SPHK1): -15% | inhibition at 0.1 µM (SPHK2): -19%
